Laboratory results reported in patent US20170246166A1, “1,2-BENZOTHIAZOLE COMPOUNDS FOR THE TREATMENT OF KIDNEY DISORDERS” (priority 2014, published 2017).
pIC50: −log10 of the molar value.

Experiments:
[1] = system: PKC; assay: PKC in vivo target inhibition assay (pleckstrin phosphorylation in blood cells); parameters: species or system mouse; details: male ICR mice, oral gavage, 2 h after treatment
Method: The purpose of this assay is to evaluate the effects of in vivo administration of a test compound on PKC substrate phosphorylation in blood cells.
Pleckstrin is one of the PKC protein substrates and is primarily expressed in platelets and peripheral blood mononuclear cells (PBMC). Pleckstrin phosphorylation is proportional to PKC activity. The phosphorylation state of the pleckstrin protein in purified platelets and PBMC from mouse blood is analyzed via Western blotting using a primary antibody specific for phosphorylated PKC substrates. This antibody recognizes multiple phosphorylated PKC substrates that include, but are not limited to p-pleckstrin. The p-pleckstrin band is identified based on its molecular weight.
Male ICR mice (Charles River) are dosed by oral gavage with a test compound homogenized in 1% hydroxethylcellulose/0.25% TWEEN® 80, at a concentration range of 0.3-3 mg/mL, depending on dose; thus dosing volume is 10 ml/kg body weight. Staurosporine, dissolved in the same vehicle, may be used as a positive control to verify that the assay is functioning. […]
10% SDS-PAGE is conducted on the cell lysates (30 μg protein loaded per lane), with 130 V for 90 min. […] Intensity of near-infrared fluorescence is proportional to the level of PKC substrate phosphorylation. It is quantitated with ODYSSEY® software. […]

[2] = target: human PKCδ (Homo sapiens, UniProt Q05655); assay: PKC isoforms based HTRF KinEASE-STK assay, PKCδ; type: biochemical; details: 62.5 μM ATP in substrate mix, 40 min
Description: The purpose of this assay is to evaluate the inhibitory activity of compounds on various PKC isoforms. It has been reported that perturbations in vascular cell homeostasis caused by different PKC isoforms (PKC-α, β1/2, and PKC-δ) are linked to the development of pathologies affecting large vessel (atherosclerosis, cardiomyopathy) and small vessel (retinopathy, nephropathy, and neuropathy) complications. Geraldes, P. and King, G. L., “Activation of Protein Kinase C Isoforms and Its Impact on Diabetic Complications”, Cir.
Effects of a test compound on the kinase activity of PKCα, β2, δ, ε, ι, and ζ, are determined using a HTRF KINEASE™-STK assay kit (Cisbio) in accordance with the protocol provided by the vendor. It is a general method for measuring Serine/Threonine kinase activities using kinase substrates and a universal detection system. In the current protocol, biotinilated STK1provided in the assay kit is used as the substrate that can be phosphorylated by any PKC isoform. The HTRF KINEASE™-STK assay kit format involves the two steps (Enzymatic step and Detection step) described below. First, the kinase phosphorylates the substrate in the presence of ATP. Second, the detection reagents provided in the assay kit recognize the phosphorylated substrate.

[3] = system: db/db mice; assay: Efficacy animal model of diabetic nephropathy (albuminuria, uninephrectomized db/db mice); type: in vivo, mouse; details: oral gavage twice a day
Description: The purpose of this assay is to analyze compound efficacy in a mouse model of diabetic nephropathy. The earliest clinical manifestation of diabetic nephropathy is albuminuria, leakage of albumin in the urine. Because diabetic nephropathy can be present without any symptoms, early diagnosis is critical so that treatment can be started. The key test for early diagnosis of diabetic nephropathy involves checking for the presence of albuminuria. Thus, if a compound reduces albumin levels in the urine in a diabetic patient, it would likely indicate efficacy of the compound in the treatment of diabetic nephropathy. To model diabetic nephropathy, a combination of genetically driven type 2 diabetes and uninephrectomy is utilized. Six week-old db/db mice (genetic strain: C57 BL KsJ, ChemPartner, Shanghai) receive standard rodent chow and water ad libitum. The left kidney is removed under anesthesia with 0.6% sodium pentobarbital at 60 mg/kg body weight (10 μL/g i.p.). Seven days after surgery, urine is collected for 24 h in a metabolic cage to measure albuminuria levels and blood is collected by tail snip to determine glucose levels. For compound treatment, the animals are randomized based on 24-h albuminuria, blood glucose, and body weight. A test compound is dissolved in 4% DMSO (aqueous) and administered twice a day by oral gavage. […] During the treatment period, albuminuria is analyzed monthly. […]

human PKCδ, sequence (Q05655 whole entry, canonical isoform): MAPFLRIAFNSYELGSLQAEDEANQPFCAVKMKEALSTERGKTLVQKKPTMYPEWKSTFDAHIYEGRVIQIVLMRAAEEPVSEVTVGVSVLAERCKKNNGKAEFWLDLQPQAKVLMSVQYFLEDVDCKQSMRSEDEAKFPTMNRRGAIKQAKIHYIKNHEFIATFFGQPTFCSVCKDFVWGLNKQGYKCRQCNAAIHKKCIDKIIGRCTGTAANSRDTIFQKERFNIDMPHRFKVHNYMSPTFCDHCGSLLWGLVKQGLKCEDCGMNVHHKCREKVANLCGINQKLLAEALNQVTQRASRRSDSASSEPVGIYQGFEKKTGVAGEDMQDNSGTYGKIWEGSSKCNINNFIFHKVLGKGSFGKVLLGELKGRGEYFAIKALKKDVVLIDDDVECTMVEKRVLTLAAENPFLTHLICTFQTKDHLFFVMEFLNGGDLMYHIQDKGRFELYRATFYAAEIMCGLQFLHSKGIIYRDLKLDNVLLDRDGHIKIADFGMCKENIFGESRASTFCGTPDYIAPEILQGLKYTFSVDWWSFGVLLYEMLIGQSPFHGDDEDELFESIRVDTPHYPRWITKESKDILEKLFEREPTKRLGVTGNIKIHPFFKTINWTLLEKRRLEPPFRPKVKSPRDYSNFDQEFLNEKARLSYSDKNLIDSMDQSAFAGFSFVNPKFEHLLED

pIC50 [2]: ~7.17
SMILES: C[C@@H]1CN(C(=O)c2cc(-c3c(F)cc(O)cc3F)cc3cnsc23)C[C@H](C)N1.Cl [Example 2, 4-(7-{[(3R,5 S)-3,5-DIMETHYLPIPERAZIN-1-YL]CARBONYL}-1,2-BENZOTHIAZOL-5-YL)-3,5-DIFLUOROPHENOL HYDROCHLORIDE]
ID50, pleckstrin phosphorylation, PBMCs ([1]; PBMCs): about 18.03 mg/kg
ID50, pleckstrin phosphorylation, platelets ([1]; platelets): about 11.85 mg/kg
ED50 ([3]; Mus musculus, uninephrectomized db/db mice, read-out: ED50, reduction of albuminuria): ~25.3 mg/kg
actual mean levels of albumin in the urine (collected during 24 hours) ([3]; db/db mice, dose of 30 mg/kg): 85.0 ± 6.9 µg
